Results on three compounds are retold here after patent publication US12503479B2, “Phospholipid-flavagline conjugates and methods of using the same for targeted cancer therapy” (Cellectar Biosciences, Inc., priority 2018, dated 2025).

For one data set, the system named is Intestinal Polyp. Description: Uptake in benign tissues: Intestinal Polyp. The data set is classed as in vivo. The following applies: Endogenous Mouse, Adenoma (benign).
In data set [1] the test system is Mammary alveolar hyperplasia. Description: Uptake in benign tissues: Mammary alveolar hyperplasia. Particulars: Endogenous Mouse. The data set is classed as in vivo.
The test system of a further data set is Sarcoma (Meth-A). Particulars: Nude Mouse, Fibrosarcoma. The text has this:
(§1) Various cancer cell lines were exposed in vitro and in vivo to a fluorescently labelled PLE (CLR 1501, compound (1)).

The next data set relates to Glioma C6. The following applies: Rat xenograft.
Description: as §1

The subject of the next data set is Cervical. Particulars: Endogenous Mouse, Adenocarcinoma.
Description: as §1

The test system of the next data set is Colon-51. The following applies: SCID Mouse, Colorectal adenocarcinoma.
Description: as §1

For data set [2], the system named is Various cancer cell lines. Particulars: in vitro and in vivo; uptake measured continuously for 24 hours.
Description: as §1

In a further data set the test system is Pancreatic Kras. The following applies: Endogenous Mouse, Adenocarcinoma.
Description: as §1

In another data set the test system is Glioma CNS1. The following applies: Rat xenograft.
Description: as §1

The subject of another data set is Min Mouse Intestinal. Particulars: Endogenous Mouse, Adenocarcinoma.
Description: as §1

The test system of a further data set is Melanoma. Particulars: Mouse, Adenocarcinoma.
Description: as §1

In another data set the test system is Renal Cell ACHN. Particulars: Nude Mouse (orthotopic), Adenocarcinoma.
Description: as §1

The test system of another data set is Prostate LuCap. Particulars: Mouse, Adenocarcinoma.
Description: as §1

The next data set has as its system Glioma RG2. The following applies: Rat xenograft.
Description: as §1

A further data set has as its system Colon DLDI. The following applies: SCID Mouse, Colorectal adenocarcinoma.
Description: as §1

In data set [3] the test system is cancer stem cells, normal brain tissue, and normal stem cells. Particulars: FIG. 7.
Description: as §1

A further data set relates to Pancreatic BXPC3. The following applies: Nude Mouse, Adenocarcinoma.
Description: as §1

Another data set relates to SCC1. The following applies: Nude Mouse, Squamous cell carcinoma.
Description: as §1

The next data set has as its system Ovarian HTB-77. Particulars: Nude Mouse, Adenocarcinoma.
Description: as §1

The subject of a further data set is Pancreatic Capan-1. Particulars: Nude Mouse, Adenocarcinoma.
Description: as §1

A further data set concerns Walker-256. Particulars: Rat, Carcinosarcoma.
Description: as §1

In the next data set the test system is SCC6. Particulars: Nude Mouse.
Description: as §1

The next data set deals with Glioma L9. Particulars: Rat xenograft.
Description: as §1

The next data set deals with TRAMP prostate. Particulars: Endogenous Mouse, Adenocarcinoma.
Description: as §1

A further data set deals with Prostate MatLyLu. The following applies: Rat, Adenocarcinoma.
Description: as §1

The next data set relates to Esophageal. Particulars: Endogenous Mouse, Adenocarcinoma.
Description: as §1

The next data set relates to Pancreatic c-myc. The following applies: Endogenous Mouse, Adenocarcinoma.
Description: as §1

The next data set relates to Melanoma A-375. The following applies: Nude Mouse.
Description: as §1

In a further data set the test system is Breast MCF-7. The following applies: Rat, Adenocarcinoma.
Description: as §1

In a further data set the test system is Mammary AC. Particulars: Apc^Min/+ mouse, Adenocarcinoma.
Description: as §1

The test system of the next data set is Adrenal H-295. Particulars: SCID Mouse, Adenocarcinoma.
Description: as §1

The subject of another data set is Retinoblastoma. The following applies: Endogenous Mouse, Blastoma.
Description: as §1

A further data set relates to myeloma cell lines. The following applies: FIG. 6.
Description: as §1

In another data set the test system is Lung A-549 (NSCLC). Particulars: SCID Mouse, Adenocarcinoma.
Description: as §1

For another data set, the system named is Breast 4T1. The following applies: Endogenous Mouse (orthotopic), Adenocarcinoma.
Description: as §1

The next data set deals with Mammary SCC. The following applies: Apc^Min/+ mouse, Squamous cell carcinoma.
Description: as §1

Another data set relates to Lung NCI H-69 (Oat Cell). Particulars: SCID Mouse.
Description: as §1

The test system of the next data set is Prostate PC-3. The following applies: SCID Mouse, Adenocarcinoma.
Description: as §1

The test system of a further data set is Prostate LnCap. Particulars: Mouse, Adenocarcinoma.
Description: as §1

The test system of a further data set is ColonLS180. Particulars: SCID Mouse, Colorectal adenocarcinoma.
Description: as §1

The test system of another data set is Renal Cell Caki-2. Particulars: Nude Mouse (orthotopic), Adenocarcinoma.
Description: as §1

The next data set deals with Colon CT-26. Particulars: SCID Mouse, Adenocarcinoma.
Description: as §1

The subject of the next data set is Adrenal RL-251. Particulars: SCID Mouse, Adenocarcinoma.
Description: as §1

In the next data set the test system is Colon HT-29. The following applies: SCID Mouse, Colorectal adenocarcinoma.
Description: as §1

In the next data set the test system is Hepatocellular Carcinoma. Particulars: Endogenous Mouse, Adenocarcinoma.
Description: as §1

The subject of another data set is Colon LS-180. Particulars: Nude Mouse, Adenocarcinoma.
Description: as §1

In data set [4] the test system is PC3 (grade IV, human prostate adenocarcinoma) cell lines. The following applies: 5 μM, 24 hours at 37° C. On the procedure: PC3 (grade IV, human prostate adenocarcinoma) cell lines were cultured overnight on micro slide VI (Ibidi, Verona, WI). […] The next day after washing with PBS, the cells were co-stained with nucleus stain (Hoechst 33342) and mitochondria marker (Mitotracker®) (Invitrogen, Carlsbad, CA). The cells were observed using Nikon A1R confocal microscope. CLR 1501 was excited and detected using Alexa-Fluor 488 filter, while nucleus stain and mitochondria stain were excited and detected using DAPI filter and Texas-Red filter, respectively.

A further data set has as its system A549 cells. The following applies: A549 cells treated with methyl b-cyclodextrin compared to untreated cells; 5 μμM, 24 hours.
Another data set concerns Normal fibroblast. The following applies: 5 μM, 24 hours at 37° C., co-culture with Caki-2 tumor cells. On the procedure: (§2) Normal fibroblast and Caki-2 tumor cells (human clear cell renal cell carcinoma) were plated and co-cultured overnight (FIG. 1F). […] The next day cells were washed and co-stained with nucleus stain (Hoescht 33342). CLR 1501 was excited and then detected with an Alexa-Fluor 488 filter.

Data set [5] has as its system Caki-2 tumor cells (human clear cell renal cell carcinoma). The following applies: 5 μM, 24 hours at 37° C., co-culture with normal fibroblast. Here is the method: as §2
The subject of another data set is benign tissues. Particulars: in vivo.
Data set [6] is classed as in vivo, mice. On the procedure: Listed in Table 5 are the doses administered to the mice, and how many mice were alive after treatment (“3/3” indicates 3 out of 3 mice were alive). […] MTD for CLR 1865 was between 5 and 10 mg/kg.
Data set [7] relates to A549 (human lung adenocarcinoma) cells. Description: Cytotoxicity of parent compound versus PDC, tumor cells (Example 8). The data set is classed as cell-based. The following applies: increasing concentrations; FIG. 3. On the procedure:
A549 (human lung adenocarcinoma) cells and normal human dermal fibroblasts (NHDF) were plated in 96 well dishes overnight. […] The difference between the cytotoxicity of the PDC molecule for tumor cells and that of the normal cells may have indicated a potential to improve the parent molecules therapeutic index.

The subject of the next data set is A375 and A549 cells. Description: Levels of FLV3 in cell lysate and growth media (LC/MS). It is filed as cell-based, human. Here is the method:
FIG. 11 is a graph of concentration versus time for FLV3 detected in the cytosol (normalized to the cytosolic volume) in A375 (human melanoma) and A549 (human lung adenocarcinoma) cell lines.
The levels of FLV3 in cell lysate and growth media were measured using LC/MS. […] Levels of intracellular FLV3 appeared to plateau at 24 hours, while extracellular levels of FLV3 continued to increase.

The test system of data set [8] is A549 (human lung adenocarcinoma). Description: cells. The following applies: Homo sapiens, A549, read-out: IC50, A549. The data set is classed as cell-based.
The subject of data set [9] is NHDF (normal human dermal fibroblasts). Briefly: cells. The data set is classed as cell-based.
Data set [10] concerns A375 (human malignant melanoma). Briefly: IC50 in cell lines: A375. The following applies: A-375, read-out: IC50, A375. It is filed as cell-based.
Data set [11] relates to HCT 116 (human colon cancer). Briefly: IC50 in cell lines: HCT 116. Particulars: HCT-116, read-out: IC50, HCT 116. It is filed as cell-based.

SMILES strings stand for the structures. Where two headings read alike, the source gives them in different places.

In the case of `C[N+](C)(C)CCOP(=O)([O-])OCCCCCCCCCCCCCCCCCCc1ccc(I)cc1` [CLR1404], the “Tumor Uptake” value (with Intestinal Polyp; in data set [1]) was “No” in each case.

As for `C[N+](C)(C)CCOP(=O)([O-])OCCCCCCCCCCCCCCCCCCc1ccc(C2=C3C=CC=[N+]3[B-](F)(F)n3cccc32)cc1` [CLR 1501], the “Tumor Uptake” value with Sarcoma (Meth-A), in the data set with Glioma C6, in the data set on Cervical, in the data set on Colon-51, with Pancreatic Kras and in the data set on Glioma CNS1 was “Yes” throughout. Moreover, the “Tumor Uptake” value with Min Mouse Intestinal, in the data set on Melanoma, in the data set on Renal Cell ACHN, in the data set on Prostate LuCap, in the data set with Glioma RG2 and in the data set with Colon DLDI was “Yes” throughout. Also, the “Tumor Uptake” value in the data set with Pancreatic BXPC3, in the data set with SCC1, in the data set on Ovarian HTB-77, in the data set on Pancreatic Capan-1, in the data set on Walker-256 and in the data set on SCC6 was “Yes” each time. In addition, the “Tumor Uptake” value in the data set on Glioma L9, in the data set with TRAMP prostate, in the data set on Prostate MatLyLu, in the data set with Esophageal, with Pancreatic c-myc and in the data set on Melanoma A-375 was “Yes” each time. In addition, the “Tumor Uptake” value in the data set with Breast MCF-7, with Mammary AC, in the data set with Adrenal H-295, with Retinoblastoma, in the data set with Lung A-549 (NSCLC) and in the data set on Breast 4T1 was “Yes” throughout. Moreover, the “Tumor Uptake” value in the data set with Mammary SCC, in the data set with Lung NCI H-69 (Oat Cell), in the data set on Prostate PC-3, with Prostate LnCap, in the data set on ColonLS180 and in the data set with Renal Cell Caki-2 was “Yes” throughout. Also, the “Tumor Uptake” value in the data set with Colon CT-26, in the data set with Adrenal RL-251, in the data set on Colon HT-29, with Hepatocellular Carcinoma and in the data set on Colon LS-180 was “Yes” each time. Besides, the “Specificity for tumors and cancer cells” value in [2] was “specific for tumors and cancer cells”. In addition, the “Uptake into cancer cells versus normal brain tissue and normal stem cells” value in data set [3] is reported as “specific uptake”. Also, the “Uptake, myeloma cell lines” value with myeloma cell lines is reported as “uptake”. In [4], the Co-localization with mitochondria entry is reported as “co-localized with mitochondria”. The “Reduction in uptake after disruption of lipid rafts” value with A549 cells amounted to 60%. Further, in the data set on Normal fibroblast, the “Localization in normal fibroblast cells” value is “minimally”. The “Localization in Caki-2 cells” value in [5] is “highly localized”. In addition, the “Uptake in benign tissues” value in the data set on benign tissues was “no uptake was observed”.

With `COC(=O)[C@@H]1[C@H](O)[C@]2(O)c3c(OC)cc(OCCCCN)cc3O[C@]2(c2ccc(OC)cc2)[C@H]1c1ccccc1` [FLV3, reference compound], the “Mice alive after treatment” value in [6] (Dose 0.1 mg/kg) and in [6] (Dose 0.25 mg/kg) was 3/3 in each case. The “Cytotoxic potency to A549 cells versus NHDF cells (selectivity)” value in data set [7] was “near equal potency to the A549 cells as it did to the NHDF cells”. Also, in the data set with A375 and A549 cells, the “Time at which levels of intracellular FLV3 plateau” value was 24 h. For the same compound, the “Levels of FLV3 in the growth media” value in the data set on A375 and A549 cells (after 24 hours) is reported as “Moderate levels”. For the same compound, the “Levels of FLV3 in the cell lysate” value in the data set with A375 and A549 cells (after 24 hours, FIG. 11) is “high levels”. The IC50 in data set [8] is 90 nM; in [9] (Homo sapiens, NHDF, read-out: IC50, NHDF) it was 8 nM; in data set [10], 15 nM; in data set [11] it was 9 nM. In addition, the “Therapeutic Index (TI)” value in [9] (not defined, equals NHDF IC50 over lowest tumor line IC50) turned out to be 0.89.

Usually IC50 stands for the concentration that inhibits the measured activity by half.
